Measured values published in patent US20250179078A1, “INHIBITORS OF NLRP3” (PTC THERAPEUTICS, INC., priority 2022, published 2025).

Biological target: T1, NLRP3 (Homo sapiens, UniProt Q96P20)
T1 construct: host or cells: THP-1 cells differentiated with PMA
Assay: IL-1β Secretion Assay (NLRP3-dependent IL1β secretion in THP1 cells)
Format: cell-based
Details: PMA-differentiated THP-1 cells; compounds incubated 20 h; 2.5 μM Nigericin 3 h; HTRF IL-1β readout; read-out: IC50 IL-1β Inhibition
Procedure, shortened: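 IL-1β in conditioned media, measured by HTRF after 3 h 2.5 μM nigericin stimulation, gave % inhibition fitted logistically for IC50. Before that, PMA-differentiated (100 ng/mL, 24 h) THP-1 cells were preincubated 20 h with 7 compound concentrations (3-fold serial, DMSO 1:200).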

T1 sequence (Q96P20 whole entry): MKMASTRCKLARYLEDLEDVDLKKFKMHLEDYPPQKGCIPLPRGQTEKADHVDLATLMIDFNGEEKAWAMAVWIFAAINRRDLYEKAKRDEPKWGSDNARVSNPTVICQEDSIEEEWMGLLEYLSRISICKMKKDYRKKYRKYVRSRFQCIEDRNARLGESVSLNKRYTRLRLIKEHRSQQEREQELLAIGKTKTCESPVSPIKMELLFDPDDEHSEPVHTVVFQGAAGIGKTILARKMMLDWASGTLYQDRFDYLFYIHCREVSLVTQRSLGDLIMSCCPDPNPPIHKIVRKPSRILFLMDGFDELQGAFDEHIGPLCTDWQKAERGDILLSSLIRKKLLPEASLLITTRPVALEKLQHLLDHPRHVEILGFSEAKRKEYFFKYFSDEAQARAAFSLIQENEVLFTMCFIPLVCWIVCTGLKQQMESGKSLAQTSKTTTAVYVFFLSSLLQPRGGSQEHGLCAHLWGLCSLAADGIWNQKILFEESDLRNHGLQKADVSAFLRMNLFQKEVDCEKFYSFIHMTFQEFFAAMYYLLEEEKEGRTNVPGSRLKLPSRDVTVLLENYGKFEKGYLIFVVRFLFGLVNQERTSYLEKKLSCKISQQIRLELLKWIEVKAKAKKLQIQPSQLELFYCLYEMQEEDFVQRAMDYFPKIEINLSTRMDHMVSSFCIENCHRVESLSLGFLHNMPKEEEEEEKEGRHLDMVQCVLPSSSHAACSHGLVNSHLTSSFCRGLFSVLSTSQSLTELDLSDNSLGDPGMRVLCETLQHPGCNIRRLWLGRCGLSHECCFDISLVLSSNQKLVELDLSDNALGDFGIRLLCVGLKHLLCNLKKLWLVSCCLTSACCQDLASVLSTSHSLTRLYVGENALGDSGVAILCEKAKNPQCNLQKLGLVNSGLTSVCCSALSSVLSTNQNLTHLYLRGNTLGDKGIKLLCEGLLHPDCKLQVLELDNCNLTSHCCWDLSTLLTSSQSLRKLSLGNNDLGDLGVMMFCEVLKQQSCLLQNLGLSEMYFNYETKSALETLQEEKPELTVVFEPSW

IC50 [nM] | Compound
1 to 10 | COc1ccc(-c2nnc(N[C@@H]3CCC[C@H](O)C3)n3cncc23)c(OC(F)(F)F)c1 [Compound 222, (1S,3R)-3-({1-[4-methoxy-2-(trifluoromethoxy)phenyl]imidazo[1,5-d][1,2,4]triazin-4-yl}amino)cyclohexan-1-ol]
10 to 100 | COCC1CC(Nc2nnc(-c3ccc(C(F)(F)F)cc3OC(F)(F)F)c3cncn23)C1 (centres unmarked) [Compound 324, N-[3-(methoxymethyl)cyclobutyl]-1-[2-(trifluoromethoxy)-4-(trifluoromethyl)phenyl]imidazo[1,5-d][1,2,4]triazin-4-amine]
1 to 10 | Cc1cc2c(-c3ccc(C4CC4)cc3C(F)F)nnc(N[C@@H]3CCCN(C)C3)n2n1 [Compound 363, 4-[4-cyclopropyl-2-(difluoromethyl)phenyl]-2-methyl-N-[(3R)-1-methylpiperidin-3-yl]pyrazolo[1,5-d][1,2,4]triazin-7-amine]
1 to 10 | C[C@]1(O)C[C@@H](Nc2nnc(-c3ccc(C(F)(F)F)cc3C(F)(F)F)c3cncn23)C1 [Compound 218, (1s,3s)-3-({1-[2,4-bis(trifluoromethyl)phenyl]imidazo[1,5-d][1,2,4]triazin-4-yl}amino)-1-methylcyclobutan-1-ol]
< 1 | CN1CCC[C@@H](Nc2nnc(-c3ccc(Br)cc3OC(F)(F)F)c3cncn23)C1 [Compound 312, 1-[4-bromo-2-(trifluoromethoxy)phenyl]-N-[(3R)-1-methylpiperidin-3-yl]imidazo[1,5-d][1,2,4]triazin-4-amine]
1 to 10 | O[C@H]1CCC[C@@H](Nc2nnc(-c3ccc(C4CC4)cc3CC(F)(F)F)c3cncn23)C1 [Compound 353, (1S,3R)-3-({1-[4-cyclopropyl-2-(2,2,2-trifluoroethyl)phenyl]imidazo[1,5-d][1,2,4]triazin-4-yl}amino)cyclohexan-1-ol]
10 to 100 | CN1CCCC(Nc2nnc(-c3ccc(OC(F)F)cc3OC(F)(F)F)c3cncn23)C1=O (centres unmarked) [Compound 328, 3-({1-[4-(difluoromethoxy)-2-(trifluoromethoxy)phenyl]imidazo[1,5-d][1,2,4]triazin-4-yl}amino)-1-methylpiperidin-2-one]
1 to 10 | OCCN1CCC[C@@H](Nc2nnc(-c3ccc(C(F)(F)F)cc3C(F)(F)F)c3cncn23)C1 [Compound 253, 2-[(3R)-3-({1-[2,4-bis(trifluoromethyl)phenyl]imidazo[1,5-d][1,2,4]triazin-4-yl}amino)piperidin-1-yl]ethan-1-ol]
10 to 100 | COc1ccc(-c2nnc(NC3CCCN(C)C3=O)n3cncc23)c(CC(F)(F)F)c1 (centres unmarked) [Compound 330, 3-({1-[4-methoxy-2-(2,2,2-trifluoroethyl)phenyl]imidazo[1,5-d][1,2,4]triazin-4-yl}amino)-1-methylpiperidin-2-one]
1 to 10 | CC(Nc1nnc(-c2ccc(C3CC3)cc2CC(F)(F)F)c2cncn12)c1cccc(O)c1 (centres unmarked) [Compound 354, 3-[1-({1-[4-cyclopropyl-2-(2,2,2-trifluoroethyl)phenyl]imidazo[1,5-d][1,2,4]triazin-4-yl}amino)ethyl]phenol]
< 1 | C[C@]1(O)C[C@@H](Nc2nnc(-c3ccc(C(F)(F)F)cc3OC(F)(F)F)c3cncn23)C1 [Compound 241, (1s,3s)-1-methyl-3-({1-[2-(trifluoromethoxy)-4-(trifluoromethyl)phenyl]imidazo[1,5-d][1,2,4]triazin-4-yl}amino)cyclobutan-1-ol]
1 to 10 | OCCN1CCC[C@@H](Nc2nnc(-c3ccc(OC(F)F)cc3OC(F)(F)F)c3cncn23)C1 [Compound 258, 2-[(3R)-3-({1-[4-(difluoromethoxy)-2-(trifluoromethoxy)phenyl]imidazo[1,5-d][1,2,4]triazin-4-yl}amino)piperidin-1-yl]ethan-1-ol]
1 to 10 | C[C@]1(O)C[C@@H](Nc2nnc(-c3ccc(C(F)(F)F)cc3C3CC3)c3cncn23)C1 [Compound 399, (1s,3s)-3-({1-[2-cyclopropyl-4-(trifluoromethyl)phenyl]imidazo[1,5-d][1,2,4]triazin-4-yl}amino)-1-methylcyclobutan-1-ol]

Second part, the compound before the results:

Compound | IC50 [nM]
COc1ccc(-c2nnc(NCc3ncnn3C)n3cccc23)c(OC(F)(F)F)c1 [Compound 93, 1-[4-methoxy-2-(trifluoromethoxy)phenyl]-N-[(1-methyl-1H-1,2,4-triazol-5-yl)methyl]pyrrolo[1,2-d][1,2,4]triazin-4-amine] | 10 to 100
COc1ccc(-c2nnc(N[C@@H]3CCCN(CCO)C3)n3cncc23)c(OC(F)(F)F)c1 [Compound 211, 2-[(3R)-3-({1-[4-methoxy-2-(trifluoromethoxy)phenyl]imidazo[1,5-d][1,2,4]triazin-4-yl}amino)piperidin-1-yl]ethan-1-ol] | < 1
COc1ccc(-c2nnc(N[C@@H]3C[C@@H](F)CN(C)C3)n3ccc(F)c23)c(OC(F)(F)F)c1 [Compound 52, 8-fluoro-N-[(3R,5R)-5-fluoro-1-methylpiperidin-3-yl]-1-[4-methoxy-2-(trifluoromethoxy)phenyl]pyrrolo[1,2-d][1,2,4]triazin-4-amine] | 1 to 10
CN1C[C@H](F)C[C@@H](Nc2nnc(-c3ccc(C(F)(F)F)cc3C(F)(F)F)c3c(F)ccn23)C1 [Compound 31, 1-[2,4-bis(trifluoromethyl)phenyl]-8-fluoro-N-[(3R,5R)-5-fluoro-1-methylpiperidin-3-yl]pyrrolo[1,2-d][1,2,4]triazin-4-amine] | 1 to 10
COc1ccc(-c2nnc(N[C@@H]3CCCN(C)C3)n3cccc23)c(Br)c1 [Compound 47, 1-(2-bromo-4-methoxyphenyl)-N-[(3R)-1-methylpiperidin-3-yl]pyrrolo[1,2-d][1,2,4]triazin-4-amine] | 10 to 100
CCN1C[C@H](F)C[C@@H](Nc2nnc(-c3ccc(C(F)(F)F)cc3C(F)(F)F)c3c(F)ccn23)C1 [Compound 32, 1-[2,4-bis(trifluoromethyl)phenyl]-N-[(3R,5R)-1-ethyl-5-fluoropiperidin-3-yl]-8-fluoropyrrolo[1,2-d][1,2,4]triazin-4-amine] | 1 to 10
CCN1CC[C@@H](O)[C@@H](Nc2nnc(-c3ccc(C(F)(F)F)cc3OC(F)F)c3cccn23)C1 [Compound 48, (3S,4R)-3-({1-[2-(difluoromethoxy)-4-(trifluoromethyl)phenyl]pyrrolo[1,2-d][1,2,4]triazin-4-yl}amino)-1-ethylpiperidin-4-ol] | < 1
CN1CCC[C@@H](Nc2nnc(-c3ccc(OC(F)F)cc3OC(F)(F)F)c3cccn23)C1 [Compound 44, 1-[4-(difluoromethoxy)-2-(trifluoromethoxy)phenyl]-N-[(3R)-1-methylpiperidin-3-yl]pyrrolo[1,2-d][1,2,4]triazin-4-amine] | < 1
O[C@@H]1COCC[C@@H]1Nc1nnc(-c2ccc(C(F)(F)F)cc2CC(F)(F)F)c2cccn12 [Compound 115, (3S,4S)-4-({1-[2-(2,2,2-trifluoroethyl)-4-(trifluoromethyl)phenyl]pyrrolo[1,2-d][1,2,4]triazin-4-yl}amino)oxan-3-ol] | 1 to 10
COc1ccc(-c2nnc(Nc3cc[nH]n3)n3ccc(F)c23)c(C(F)(F)F)c1 [Compound 117, 8-fluoro-1-[4-methoxy-2-(trifluoromethyl)phenyl]-N-(1H-pyrazol-3-yl)pyrrolo[1,2-d][1,2,4]triazin-4-amine] | 10 to 100
CCN1CC[C@@H](O)[C@@H](Nc2nnc(-c3ccc(C(F)(F)F)cc3C(F)(F)F)c3cc(C)cn23)C1 [Compound 134, (3S,4R)-3-({1-[2,4-bis(trifluoromethyl)phenyl]-7-methylpyrrolo[1,2-d][1,2,4]triazin-4-yl}amino)-1-ethylpiperidin-4-ol] | 1 to 10
Cc1cc2c(-c3ccc(C(F)(F)F)cc3C(F)(F)F)nnc(NC3CCNC3=O)n2c1 (centres unmarked) [Compound 161, 3-({1-[2,4-bis(trifluoromethyl)phenyl]-7-methylpyrrolo[1,2-d][1,2,4]triazin-4-yl}amino)pyrrolidin-2-one] | 1 to 10
COc1ccc(-c2nnc(N[C@H]3C[C@@](C)(O)C3)n3ccc(F)c23)c(Cl)c1 [Compound 84, (1s,3s)-3-{[1-(2-chloro-4-methoxyphenyl)-8-fluoropyrrolo[1,2-d][1,2,4]triazin-4-yl]amino}-1-methylcyclobutan-1-ol] | 10 to 100
Cc1ccc(-c2nnc(N[C@@H]3CCCN(C)C3)n3cc(C)cc23)c(OC(F)F)c1 [Compound 25, 1-[2-(difluoromethoxy)-4-methylphenyl]-7-methyl-N-[(3R)-1-methylpiperidin-3-yl]pyrrolo[1,2-d][1,2,4]triazin-4-amine] | 1 to 10
COc1ccc(-c2nnc(N[C@@H]3CCCC[C@H]3O)n3cccc23)c(OC(F)F)c1 [Compound 177, (1R,2R)-2-({1-[2-(difluoromethoxy)-4-methoxyphenyl]pyrrolo[1,2-d][1,2,4]triazin-4-yl}amino)cyclohexan-1-ol] | 10 to 100
C[C@]1(O)C[C@@H](Nc2nnc(-c3ccc(C(F)(F)F)cc3OC(F)F)c3cncn23)C1 [Compound 187, (1s,3s)-3-({1-[2-(difluoromethoxy)-4-(trifluoromethyl)phenyl]imidazo[1,5-d][1,2,4]triazin-4-yl}amino)-1-methylcyclobutan-1-ol] | 1 to 10
OCCN1CCC[C@@H](Nc2nnc(-c3ccc(C(F)(F)F)cc3OC3CC3)c3cccn23)C1 [Compound 179, 2-[(3R)-3-({1-[2-(cyclopropyloxy)-4-(trifluoromethyl)phenyl]pyrrolo[1,2-d][1,2,4]triazin-4-yl}amino)piperidin-1-yl]ethan-1-ol] | 10 to 100
COc1ccc(-c2nnc(NC[C@@H](C)O)n3cccc23)c(OC(F)(F)F)c1 [Compound 70, (2R)-1-({1-[4-methoxy-2-(trifluoromethoxy)phenyl]pyrrolo[1,2-d][1,2,4]triazin-4-yl}amino)propan-2-ol] | 1 to 10
C[C@]1(O)C[C@@H](Nc2nnc(-c3ccc(C(F)(F)F)cc3C(F)(F)F)c3ccnn23)C1 [Compound 4, (1s,3s)-3-({4-[2,4-bis(trifluoromethyl)phenyl]pyrazolo[1,5-d][1,2,4]triazin-7-yl}amino)-1-methylcyclobutan-1-ol] | 1 to 10
